From patent publication US10519114B2, “Peptidomimetics and methods of using the same” (The Regents of the University of Michigan, priority 2016, dated 2019)

Legend:
[1] = biological target: T1, rat δ (C6-DOR) opioid receptor (Rattus norvegicus, UniProt P33533); test: Radioligand binding assay, [3H]diprenorphine displacement, DOR; conditions: displacement of 0.2 nM [3H]diprenorphine, C6-DOR membranes; mean ± standard error
T1 construct: expressed in transfected cells
Method in brief: (§1)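 Membranes (20 μg protein) from C6 cells expressing rat μ or δ, or CHO cells expressing human κ receptor, incubated 1 h at room temperature with 0.2 nM [3H]diprenorphine and test peptide in 50 mM Tris-HCl pH 7.4. Filtration, scintillation counting; nonspecific binding with 10 μM naloxone; Ki by logistic nonlinear regression.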

[2] = biological target: T2, human κ (CHO-KOR) opioid receptor (Homo sapiens, UniProt P41145); test: Radioligand binding assay, [3H]diprenorphine displacement, KOR; conditions: displacement of 0.2 nM [3H]diprenorphine, CHO-KOR membranes; mean ± standard error
T2 construct: expressed in transfected cells
Method in brief: as §1

[3] = biological target: T3, rat μ (C6-MOR) opioid receptor (Rattus norvegicus, UniProt P33535); test: Radioligand binding assay, [3H]diprenorphine displacement, MOR; conditions: displacement of 0.2 nM [3H]diprenorphine, C6-MOR membranes; mean ± standard error
T3 construct: expressed in transfected cells
Method in brief: as §1

[4] = biological target: T2, human κ (CHO-KOR) opioid receptor; test: Stimulation of [35S]GTPγS binding, KOR; format: biochemical; conditions: for EC50 (nm) KOR / EC50: [35S]GTPγS binding, CHO-KOR membranes, mean ± standard error; for % stimulation KOR / Emax: [35S]GTPγS maximal stimulation compared with 10 μM standard U-69,593
Method in brief: (§2)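 Membranes (10–20 μg protein) from C6 glioma cells expressing rat MOR or DOR, or CHO cells expressing human KOR, were incubated 1 h at room temperature with 0.1 nM [35S]GTPγS, 30 μM GDP and test peptides in Tris buffer pH 7.4. Bound label was filtered and counted; maximal stimulation, by nonlinear regression, was relative to 10 μM DAMGO (MOR), DPDPE (DOR) or U69,593 (KOR).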

[5] = biological target: T1, rat δ (C6-DOR) opioid receptor; test: Stimulation of [35S]GTPγS binding, DOR; format: biochemical; conditions: for EC50 (nm) DOR / EC50: [35S]GTPγS binding, C6-DOR membranes, mean ± standard error; for % stimulation DOR / Emax: [35S]GTPγS maximal stimulation compared with 10 μM standard DPDPE
Method in brief: as §2

[6] = biological target: T3, rat μ (C6-MOR) opioid receptor; test: Stimulation of [35S]GTPγS binding, MOR; format: biochemical; conditions: for EC50: [35S]GTPγS binding, C6-MOR membranes, mean ± standard error; for Emax: [35S]GTPγS maximal stimulation compared with 10 μM standard DAMGO
Method in brief: as §2

T3 sequence (P33535 whole entry): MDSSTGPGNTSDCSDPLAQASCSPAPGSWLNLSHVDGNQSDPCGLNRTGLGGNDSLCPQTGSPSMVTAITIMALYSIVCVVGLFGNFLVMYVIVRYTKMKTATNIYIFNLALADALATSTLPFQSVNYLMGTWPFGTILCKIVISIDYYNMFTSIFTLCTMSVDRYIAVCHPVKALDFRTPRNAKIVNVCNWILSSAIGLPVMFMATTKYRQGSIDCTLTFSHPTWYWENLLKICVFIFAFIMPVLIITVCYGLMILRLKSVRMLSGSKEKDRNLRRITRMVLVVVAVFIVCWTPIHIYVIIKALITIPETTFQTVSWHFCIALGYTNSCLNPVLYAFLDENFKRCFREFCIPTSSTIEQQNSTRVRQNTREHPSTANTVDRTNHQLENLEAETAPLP
T1 sequence (P33533 whole entry): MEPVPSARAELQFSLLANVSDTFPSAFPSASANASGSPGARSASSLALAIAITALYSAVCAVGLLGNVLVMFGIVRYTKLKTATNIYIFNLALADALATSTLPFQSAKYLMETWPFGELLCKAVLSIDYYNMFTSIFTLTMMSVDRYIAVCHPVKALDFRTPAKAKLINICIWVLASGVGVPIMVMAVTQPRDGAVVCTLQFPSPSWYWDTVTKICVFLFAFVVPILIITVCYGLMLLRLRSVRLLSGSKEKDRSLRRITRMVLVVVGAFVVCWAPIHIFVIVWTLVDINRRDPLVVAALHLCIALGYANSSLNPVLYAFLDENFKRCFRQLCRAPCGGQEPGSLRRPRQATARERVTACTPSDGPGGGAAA
T2 sequence (P41145 whole entry): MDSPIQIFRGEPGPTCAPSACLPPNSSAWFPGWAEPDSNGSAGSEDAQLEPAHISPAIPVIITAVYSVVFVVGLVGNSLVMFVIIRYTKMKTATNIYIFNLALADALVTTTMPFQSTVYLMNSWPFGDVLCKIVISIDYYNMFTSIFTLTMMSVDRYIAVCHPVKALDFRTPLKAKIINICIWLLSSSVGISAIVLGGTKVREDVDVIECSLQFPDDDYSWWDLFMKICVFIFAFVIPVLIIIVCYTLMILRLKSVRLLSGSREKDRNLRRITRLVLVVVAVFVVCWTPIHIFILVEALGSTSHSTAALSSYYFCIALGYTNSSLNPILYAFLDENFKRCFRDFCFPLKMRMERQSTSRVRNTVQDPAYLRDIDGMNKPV

| Structure (SMILES) | Ki [1] [nM] | Ki [2] [nM] | Ki [3] [nM] | EC50 (nm) KOR [4] | % stimulation KOR [4] | EC50 (nm) DOR [5] | % stimulation DOR [5] | EC50 [6] [nM] | Emax [6] [%] | EC50 [4] [nM] | Emax [4] [%] | EC50 [5] [nM] | Emax [5] [%] |
| --- | --- | --- | --- | --- | --- | --- | --- | --- | --- | --- | --- | --- | --- |
| Cc1cc(O)cc(C)c1C[C@H](N)C(=O)N[C@@H]1CCNc2c(-c3cc4ccccc4o3)cc(Cc3ccccc3)cc21 [Compound 1095] | 71 ± 17 | 800 ± 115 | 3.14 ± 1 | dns | dns | dns | dns | 15.6 ± 6.86 | 100 ± 2.48 |  |  |  |  |
| Cc1cc(O)cc(C)c1C[C@H](N)C(=O)N[C@@H]1CCNc2c(CN3CCN(C(=O)[C@@H](N)Cc4c(C)cc(O)cc4C)CC3)cc(Cc3ccccc3)cc21 [Compound 1096] | 2.56 ± 0.53 | 7.17 ± 2.38 | 0.31 ± 0.16 | dns | dns | dns | dns | 5.89 ± 0.68 | 86 ± 8 |  |  |  |  |
| Cc1cc(O)cc(C)c1C[C@H](N)C(=O)N[C@@H]1CCOc2ccc(Cc3ccccc3)cc21 [Compound 1111] | 8.65 ± 1.61 | 58.3 ± 14.1 | 0.046 ± 0.028 |  |  |  |  | 4.85 ± 2.14 | 69.7 ± 5.97 | 662 ± 152 | 28.3 ± 6.71 | 118 ± 2.45 | 8.97 ± 4.78 |
| Cc1cc(O)cc(C)c1C[C@H](N)C(=O)N[C@H]1CCOc2ccc(Cc3ccccc3)cc21 [Compound 1112] | 260 ± 62.9 | 354 ± 37.1 | 6.07 ± 2.41 |  |  |  |  | 654 ± 361 | 7.18 ± 2.41 |  | -0.061 ± 0.45 |  | 2.48 ± 3.08 |
| Cc1cc(O)cc(C)c1C[C@H](N)C(=O)N[C@@H]1CCCc2ccccc21 [Compound 1113] | 640 ± 218 | 2060 ± 582 | 25.6 ± 10.9 |  |  |  |  |  | 3.44 ± 2.09 |  | -1.05 |  | -0.76 ± 0.62 |
| Cc1cc(O)cc(C)c1C[C@H](N)C(=O)NC1CCc2ccc(Cc3ccccc3)cc21 (some centres unmarked) [Compound 1114] | 29.9 ± 10.1 | 143 ± 45.4 | 0.55 ± 0.09 |  |  |  |  | 18.3 ± 8.14 | 42.6 ± 8.65 | 1600 | 3.7 ± 4.06 |  | 3.07 ± 1.82 |
| Cc1cc(O)cc(C)c1C[C@H](N)C(=O)N[C@@H]1CCCc2ccc(-c3cccc4ccccc34)cc21 [Compound 1115] | 45.5 ± 26.9 | 131 ± 42.3 | 5.44 ± 2.7 |  |  |  |  |  | 0.34 ± 3.26 | 200 | 3.82 ± 3.2 |  | -2.57 ± 4.3 |
| Cc1cc(O)cc(C)c1C[C@H](N)C(=O)N[C@@H]1CCCc2ccc(-c3ccc4ccccc4c3)cc21 [Compound 1116] | 6.03 ± 0.2 | 315.9 ± 0.91 | 0.24 ± 0.12 |  |  |  |  |  | -1.1 ± 1.61 | 237 | 5.57 ± 8.53 |  | 1.75 ± 1.44 |
| Cc1cc(O)cc(C)c1C[C@H](N)C(=O)N[C@@H]1CCCc2ccc(-c3ccccc3)cc21 [Compound 1117] | 3.99 ± 1.31 | 20.9 ± 4.12 | 0.57 ± 0.32 |  |  |  |  | 9.51 ± 3.3 | 28.7 ± 2.39 | 321 ± 176 | 45.6 ± 1.77 | 181 ± 28.2 | 21.2 ± 10.7 |
| Cc1cc(O)cc(C)c1C[C@H](N)C(=O)N[C@@H]1CCSc2ccc(Cc3ccccc3)cc21 [Compound 1123] | 4.79 ± 1.11 | 48.4 ± 23.1 | 0.15 ± 0.04 |  |  | dns | dns | 1.92 ± 0.54 | 79.9 ± 7.51 | 337 ± 205 | 10.3 ± 5.17 |  |  |
| Cc1cc(O)cc(C)c1C[C@H](N)C(=O)N[C@@H]1CCS(=O)(=O)c2ccc(Cc3ccccc3)cc21 [Compound 1124] | 2.34 ± 1.42 | 27.2 ± 5.99 | 0.06 ± 0.01 |  |  |  |  | 0.72 ± 0.11 | 94.5 ± 3.04 | 721 ± 317 | 35.8 ± 2.15 | 126 ± 72.5 | 45.2 ± 5.62 |
| CC(=O)N1CC[C@@H](NC(=O)[C@@H](N)Cc2c(C)cc(O)cc2C)c2cc(CC3Cc4ccccc4C3C)ccc21 (some centres unmarked) [Compound 1125] | 0.67 ± 0.08 | 2.53 ± 1.52 | 0.28 ± 0.12 | dns | dns | dns | dns | 3.03 ± 2.32 | 69.5 ± 10.4 |  |  |  |  |
| Cc1cc(O)cc(C)c1C[C@H](N)C(=O)N[C@@H]1CCNc2c(CN3CCNCC3)cc(Cc3ccccc3)cc21 [Compound 1131] | 22 | 1.9 | 0.35 |  |  |  |  | 8 | 61 | 190 | 18 | 280 | 17 |
